Measurements: BigSolDB 2.1

`CO[C@@]1(NC(=O)Cc2cccs2)C(=O)N2C(C(=O)O)=C(COC(N)=O)CS[C@@H]21` showed a solubility (mole fraction) (in acetonitrile, 278.15 K) of 0.000452, a solubility (mole fraction) (in acetonitrile, 283.15 K) of 0.000491 and a solubility (mole fraction) (in acetonitrile, 288.15 K) of 0.000528. It also gave a solubility (mole fraction) (in acetonitrile, 293.15 K) of 0.00058, a solubility (mole fraction) (in acetonitrile, 298.15 K) of 0.000621 and a solubility (mole fraction) (in acetonitrile, 303.15 K) of 0.000677. The solubility (mole fraction) (in acetonitrile, 308.15 K) was 0.00076, the solubility (mole fraction) (in ethanol, 278.15 K) was 0.000403 and the solubility (mole fraction) (in ethanol, 283.15 K) was 0.000484. For the same compound, the solubility (mole fraction) (in ethanol, 288.15 K) was 0.000603, the solubility (mole fraction) (in ethanol, 293.15 K) was 0.000739 and the solubility (mole fraction) (in ethanol, 298.15 K) was 0.000852. For the same compound, the solubility (mole fraction) (in ethanol, 303.15 K) was 0.00103, the solubility (mole fraction) (in ethanol, 308.15 K) was 0.00118 and the solubility (mole fraction) (in ethyl acetate, 278.15 K) was 0.000229. For the same compound, the solubility (mole fraction) (in ethyl acetate, 283.15 K) was 0.000241, the solubility (mole fraction) (in ethyl acetate, 288.15 K) was 0.000257 and the solubility (mole fraction) (in ethyl acetate, 293.15 K) was 0.000267. For the same compound, the solubility (mole fraction) (in ethyl acetate, 298.15 K) was 0.000282, the solubility (mole fraction) (in ethyl acetate, 303.15 K) was 0.000296 and the solubility (mole fraction) (in ethyl acetate, 308.15 K) was 0.00032. The solubility (mole fraction) (in isopropanol, 278.15 K) was 4.4e-05, the solubility (mole fraction) (in isopropanol, 283.15 K) was 7.19e-05 and the solubility (mole fraction) (in isopropanol, 288.15 K) was 0.000109. It also gave a solubility (mole fraction) (in isopropanol, 293.15 K) of 0.000151, a solubility (mole fraction) (in isopropanol, 298.15 K) of 0.000186 and a solubility (mole fraction) (in isopropanol, 303.15 K) of 0.000243. It also gave a solubility (mole fraction) (in isopropanol, 308.15 K) of 0.000314, a solubility (mole fraction) (in methanol, 278.15 K) of 0.00565 and a solubility (mole fraction) (in methanol, 283.15 K) of 0.00658. It also gave a solubility (mole fraction) (in methanol, 288.15 K) of 0.00772, a solubility (mole fraction) (in methanol, 293.15 K) of 0.00919 and a solubility (mole fraction) (in methanol, 298.15 K) of 0.011. The solubility (mole fraction) (in methanol, 303.15 K) was 0.0129, the solubility (mole fraction) (in methanol, 308.15 K) was 0.0149 and the solubility (mole fraction) (in n-propanol, 278.15 K) was 0.000209. It also gave a solubility (mole fraction) (in n-propanol, 283.15 K) of 0.000253, a solubility (mole fraction) (in n-propanol, 288.15 K) of 0.000286 and a solubility (mole fraction) (in n-propanol, 293.15 K) of 0.000338. The solubility (mole fraction) (in n-propanol, 298.15 K) was 0.000394, the solubility (mole fraction) (in n-propanol, 303.15 K) was 0.000492 and the solubility (mole fraction) (in n-propanol, 308.15 K) was 0.000561.
